In patent US7658706B2, “Vascular graft sterilization and decellularization” (RTI Biologics, Inc., priority 2005, dated 2010):
Read-outs that look alike come from different tables or passages of the source.

Assays:
[1] = system: human saphenous vein; experiment: Histology (H&E) for cellularity and matrix (Example 1); details: 0.05% Trypsin, 37° C., 6 or 24 hours (FIGS. 7, 8)
Experimental: Samples of human saphenous veins 10 mm in length were placed in each of the test solution at 37° C. or 48° C. for both 6 and 24 hours while continuously shaking. Samples were then rinsed in PBS at room temperature for 10 minutes while continuously shaking. Following the rinse step, the samples were cut in half and either prepared for histology or immunohistochemistry.
Samples were placed in 10% buffered formalin immediately following the rinse step and remained there for at least 24 hours before further preparation. Then, the samples were embedded in paraffin and stained with hematoxylin and eosin (H&E) to determine cellularity.
The results of the immunohistochemical stain were compared to histology slides stained for cellularity (FIGS. 7 to 10). […] The extracellular matrix is preserved in each segment except with 1.0% Cholate at 48° C.

[2] = system: class I MHC antigens in human saphenous vein; experiment: Immunohistochemical stain for class I MHC antigens after decellularization (Example 1)
Experimental: The effectiveness of cell and cellular debris removal was evaluated using two detergent and two enzyme solutions at various concentrations (Table 2). […] One treatment group combined Triton-X 100 with sodium deoxycholate. Trypsin alone at 0.05% (w/v) or 1.0% (w/v) and in combination with 0.02% (w/v) EDTA were the enzyme solutions used in the decellularization process.
Samples were then rinsed in PBS at room temperature for 10 minutes while continuously shaking. Following the rinse step, the samples were cut in half and either prepared for histology or immunohistochemistry.
Immunohistochemistry was used to determine the level of antigens remaining in the tissue after treatment. […] Samples were prepared in frozen blocks and sectioned with a cryostat. The sections were thawed and then rinsed for blocking and antibody staining. Sections were incubated for 30 minutes in primary antibody (mouse anti-HLA-ABC class I MHC) solution and then for anther 30 minutes in diluted biotinylated secondary antibody (Vector ABC Elite kit) solution. An enzyme substrate, NovaRed (Vector), was used to stain the antibodies red. The counter stain was hematoxylin providing a blue contrast.
A Zeiss Axiophot 2 microscope with a motorized Ludl scanning stage was used with tile field mapping at 5× to capture the entire image in one frame. Particle analysis was performed in Image J to determine the ratio of antigen staining (red) to the total tissue sample.
A blue and green filter was applied to only allow red to pass. Obvious areas of antigen staining were removed due to this variation in red hue. […] All samples were compared to their negatives for a percentage of red staining.
This procedure was applied to all images. […] The treatment groups are labeled according to the detergent or enzyme used followed by the processing conditions. For the Trypsin and Trypsin+EDTA groups, the concentrations ranged from 0.05% (L) to 1.0% (H), the processing temperatures were 37° C. (L), 48° C. (M) and 55° C. (H), and the processing times were 6 hrs (L), 17 hrs (M) and 24 hrs (H).

[3] = system: collagen; experiment: Collagen denaturation, quantitative enzyme digestion assay (matrix integrity)
Experimental: One of the major structural components of the extracellular matrix that gives veins their strength is collagen. Damage to collagen can result in mechanical failures such as increased compliance or aneurism formation. It can also result in a cellular response due the exposure of the triple helix when stability is compromised. The amount of collagen denaturation was assessed to evaluate processing conditions with a quantitative enzyme digestion assay. […] Digested and undigested fractions are separated and hydrolyzed with concentrated hydrochloric acid (HCl) to release free amino acids from each fraction. Following neutralization of the acid in 1 N NaOH, levels of hydroxyproline (an amino acid present in high concentrations in collagen) are assessed in each fraction by a calorimetric method at a wavelength of 550 nm (Chloramine T binding, and reduction of the substrate DAB to a colored end product). The level of denatured collagen in a given sample is then expressed as a percent of the trypsin soluble fraction to the sum of both trypsin soluble and trypsin insoluble fractions.
Achieving the appropriate log reduction should not come at the expense of the integrity of the extracellular matrix. […] The effect of hydrogen peroxide at 6% at 40° C. and 50° C. on collagen was compared to PAA at 0.1% at the same specified temperatures.
Digested and undigested fractions are separated and hydrolyzed with concentrated hydrochloric acid (HCl) to release free amino acids from each fraction. Following neutralization of the acid in 1 N NaOH, levels of hydroxyproline (an amino acid present in high concentrations only in collagen) are assessed in each fraction by a calorimetric method (Chloramine T binding, and reduction of the substrate DAB to a colored end product). The level of denatured collagen in a given sample is then expressed as a percent of the trypsin soluble fraction to the sum of both trypsin soluble and trypsin insoluble fractions.

[4] = system: enteric bacteria (E. coli, Enterococcus faecalis or Salmonella enteritidis); details: peroxide doses of 0.3 to 15%, 10 min; cited from earlier work
[5] = system: Bacillus atrophaeus spores; details: 7.5% hydrogen peroxide, room temperature, 6 hour incubation; cited from earlier work
[6] = system: Bacillus stearothermophilus; experiment: Growth inhibition by residual germicide on TSA and blood agar plates; type: cell-based
Experimental: (§1) In order to determine the reduction in spores after processing with cleaning agents, an effective and consistent method was developed. […] It was determined that residual hydrogen peroxide inhibited the growth at concentrations of 0.6% or higher for TSA plates and 6% or higher for blood plates (FIG. 12). It is believed that the catalase contained in the blood agar plates inactivated the hydrogen peroxide. […] Even though the blood agar plates allowed for dilutions as low as 1:10, the titre used was too low to detect more than a 3 log reduction in the process limiting the data collection for the survivor curves.

[7] = system: B. stearothermophilus; details: 26.5% hydrogen peroxide, 25° C.; cited from earlier work
[8] = system: B. stearothermophilus spores
Experimental: Before enumerating the population remaining on tissue following chemical processing, the amount recoverable from the tissue must be determined. The recovery process developed involves the use of sonication, mechanical shaking and agitation on a vortex. Veins were cut into 30 mm segments and clamped at one end. […] The samples were then cut from the clamps and split open over a centrifuge tube containing 39.9 ml of Letheen broth to expose the lumen to the recovery process. A new pair of scissors or a new scalpel blade were used for each vein and the segments were cut over the broth to catch anything that may not have adhered to the surface of the tissue.
The tubes were sonicated at room temperature for ten minutes to break the bacteria from the surfaces. The tubes were then placed on a shaker where they were for another 10 min. The Letheen broth containing the tissue sample was then vortexed for 30 s and diluted in a series of 1:10 dilutions with each dilution plated on blood agar plates. The plates were incubated overnight at 60° C.
The procedure for spike recovery was used to collect data for the reduction curves. Vein segments were inoculated and then treated in one of the following conditions. Hydrogen peroxide (6%) was analyzed at 40° C. and 50° C. while peracetic acid (0.1%) was only tested at 40° C. At each time point, three samples were spiked and treated with one control for recovery efficiency.
(§2) Typically, a survivor curve is constructed with the initial population at time zero and the resultant populations at various time points. Since not all data points could be completed in the same day, some reduction curves were constructed to compare log reduction in the controls for each experiment over time. This normalized the data to its own experimental episode.
A control was used at each experimental episode to provide a correction factor for the treated samples. The recovered population divided by the correction factor provides the surviving population after treatment.

[9] = system: B. stearothermophilus spores; experiment: Suspension sterilization: survivor/reduction curves for spores in germicide; type: cell-based, Bacillus stearothermophilus
Description: The effectiveness of a sterilant is defined in terms of decimal reduction time (D-value). This is the exposure time (t) used under certain conditions to cause one log reduction (n) (90%) of the initial population. A suspension is expected to follow a predictable death rate regarding a plot of the amount of survivors over time. The negative reciprocal of the slope of regression lines of survivor curves gives the D-value where t=D×n n=[…]
as §1
To ensure consistency, each vial was vortexed before each replicate and all of the material was removed from the pipette tip onto the plate. Disposable plate spreaders were used to prevent cross contamination. The moisture needed to be maintained at a certain level because the plates would dry out at 60° C., but if there was too much moisture the bacteria would streak across the plate and prevent an accurate count. The first procedure implemented was propping the plates open in a laminar flow hood to allow excessive moisture to dry. The second method employed was placing the plates in a beaker with a porous covering to trap some moisture while allowing the excess to evaporate.
Hydrogen peroxide at a concentration of 6% was used at temperatures of 40, 45 and 50° C. to calculate a curve for modeling the temperature effects on spore kill. […] Samples were removed and immediately placed in an ice bath at 10, 15, 20 and 30 min. The vial was well-mixed on a vortex, and then diluted 1:10 in series before plating.
Peracetic acid at concentrations of 0.1%, 0.05% and 0.005% were used only at 40° C. to calculate a curve for modeling the concentration effects on spore kill. […] Samples were removed and immediately placed in an ice bath at various time points depending on the concentration. The vial was well-mixed on a vortex, and then diluted 1:10 in series before plating.
as §2

[10] = system: B. subtilis; details: hydrogen peroxide alone, 25° C.; cited from earlier work
[11] = system: B. stearothermophilus; details: 6% in DI water, PBS (pH 6) or PBS (pH 7.2), 45° C., sonication
Experimental: In a separate study, 6% hydrogen peroxide was prepared in either DI water, PBS (pH 6) or PBS (pH 7.2). It was then used at 45° C. to treat B. stearothermophilus while under sonication.

[12] = system: human greater saphenous vein; details: 0.075% SDS; cited from earlier work
[13] = Bradford Assay of nonspecific proteins in collagenase digested vein samples; design: species or system human; details: 0.1% peracetic acid versus 6% hydrogen peroxide (FIGS. 29, 30)
Experimental: In a further study, the efficiency of peracetic acid (PAA) versus hydrogen peroxide (HP) was investigated. Samples were treated in either 0.1% PAA or 6% HP and were exposed for varying lengths of time at varying temperatures.
Without wishing to be bound by theory, it is believed that the peracetic acid opens the collagen matrix up to allow for greater penetration of the tissue. It also believed to break down the proteins better than hydrogen peroxide. […] The Bradford Assay (Bradford, 1976) is used to quantify nonspecific proteins in collagenase digested vein samples. The Bradford Assay is a general protein assay, is based on an absorbance shift in a dye (Coomassie brilliant blue G-250 dye (CBBG)). CBBG has an absorbance shift when bound to arginine and hydrophobic amino acid residues (e.g., tryptophan, tyrosine, histidine and phenylalanine) present in protein. The reduction in antigenicity is correlated in the immunohistochemical staining (e.g., groups L and K from Example 5) and the histopathology scores (e.g., prototype recipe from Example 4).

## Trypsin
[1]
  cellularity in histology: still evidence of cells
[2]; 1.0% Trypsin or 1.0%/0.02% Trypsin/EDTA, minimum of 48° C. and 17 hrs
  level of antigens: significantly reduced the level of antigens
[3]
  collagen degradation compared to untreated controls: less than half of the degradation of the untreated controls

## OO [hydrogen peroxide]
[4]
  log microbial reductions: below 0.2 log
[5]
  growth of spores: No growth was detected
[6]; TSA plates
  residual concentration that inhibited the growth: ≥ 0.6%
[6]; blood plates
  residual concentration that inhibited the growth: ≥ 6%
[7]
  D-value: 4.7 min
[8]; 6% hydrogen peroxide, 50° C., spiked tissue
  time for a 6 log reduction: less than 40 minutes
[8]; 6% hydrogen peroxide, 50° C., spiked tissue (FIG. 20)
  D-value: 6.63
[8]; 6% peroxide with tissue, temperature not stated
  D-value with tissue: 5.34
[8]; 6% peroxide, 40° C., spiked tissue (FIG. 21)
  D-value: 15.17
[8]; 6% peroxide, temperature not stated
  decrease of D-value with tissue versus suspension: approximately 4 minutes
[9]; 6% peroxide, 40° C., spores in suspension (FIG. 16)
  D-value: 47.39
[9]; 6% peroxide, 40° C., suspension
  time for a 6 log reduction: ~5 hours
[9]; 6% peroxide, 45° C., spores in suspension (FIG. 15)
  D-value: 23.0
[9]; 6% peroxide, 50° C., spores in suspension (FIG. 14)
  D-value: 9.87
[9]; 6% peroxide, 50° C., suspension
  time for a 6 log reduction: less than an hour
[9]; 6% peroxide, from 40° C. to 50° C., suspension
  reduction of the D-value by an increase in temperature: approximately 80%
[10]
  D-value: 55.2 min
[11]
  effect of buffer/pH on sterilizing: a buffered solution may be more effective
[3]
  ratio of degraded collagen compared to untreated controls: significantly altered matrix properties

## O=C(O)CN(CCN(CC(=O)O)CC(=O)O)CC(=O)O [EDTA]
[2]; added to Triton at 0.25%, 6 hours, 37° C.
  effect of addition of EDTA on removal of cells: enhance the removal of cells
[2]; added to Trypsin
  effect of addition of EDTA on removal of antigens: inconsistent effect

## CCCCCCCCCCCCOS(=O)(=O)[O-].[Na+] [SDS, sodium dodecyl sulfate]
[12]
  transmural cell removal: > 94%

## CC(=O)OO [peracetic acid]
[13]
  efficiency in breaking down proteins: more efficient than 6% hydrogen peroxide in significantly breaking down proteins
[6]; within the processing concentrations, blood agar plates (FIG. 13)
  growth inhibition by residual germicide: no inhibition was observed
[9]; 0.005% PAA, 40° C., spores in suspension (FIG. 19)
  D-value: 6.45
[9]; 0.05% PAA, 40° C., spores in suspension (FIG. 18)
  D-value: 1.90
[9]; 0.05% PAA, 40° C., suspension
  time for a 6 log reduction: 11 minutes
[3]; 0.1% PAA (FIGS. 31, 32)
  amount of digestible hydroxyproline: did not increase the amount of digestible hydroxyproline
[3]; 6% hydrogen peroxide, 0.1% PAA, 50° C., one hour (FIG. 22)
  ratio of degraded collagen compared to untreated controls: significantly altered matrix properties

## octylphenol ethoxylate [Triton]
[3]; Triton 1.0%, Cholate 0.25%, 48° C., 24 hours, constant agitation (FIG. 11)
  collagen degradation compared to untreated controls: A significant degradative effect was not seen
